Reference: US20240115534A1, “COMPOSITION FOR MUSCLE ENHANCEMENT AND USE OF SAME” (J-OIL MILLS, INC., priority 2021, published 2024)

System: mouse myoblast strain C2C12 (myotube cells)
Experiment: Myotube area and maximum transverse diameter of C2C12 myotube cells (anti-MHC immunostaining, imaging analysis)
Assay type: cell-based
Conditions: for Maximum transverse diameter/myotube cell (%) Average value / Myotube area/field of view (%) Average value: two days, untreated control = 100%
Procedure: Cells of mouse myoblast strain C2C12 (ATCC catalog no. CRL-1772)
Proliferation culture medium: DMEM (high glucose) to which 10% FBS and 1% PS are added
Differentiation culture medium: DMEM (high glucose) to which 2% HS and 1% PS are added
The fatty acids indicated below were added to the culture medium so as to reach a concentration of 0.05 mM, 0.2 mM, or 0.5 mM. As a positive control, insulin-like growth factor (IGF-1) (made by Sigma-Aldrich Co., LLC), which is a factor for promoting formation of myotube cells, was added to the culture medium so as to reach a concentration of 10 ng/mL.
The fatty acids were dissolved in dimethyl sulfoxide (DMSO) (made by Nacalai Tesque Inc.) to formulate solutions having a concentration of 0.05 M, 0.2 M, 0.5 M, or 1 M, and the solutions were added in 1/1000 amounts to the culture medium to reach a target final concentration of 0.05 mM, 0.2 mM, 0.5 mM, or 1 mM. The IGF-1 serving as a positive control was formulated to a concentration of 10 μg/mL using 0.1 N HCl, and the resultant solution was added in a 1/1000 amount to the culture medium to reach a target final concentration of 10 ng/mL.
The C2C12 cells were recovered in a T75 flask using the proliferation culture medium and cultured using a CO2 incubator (37° C., 5% CO2, moist; same applies below). The culture medium was replaced at intervals of one to two days. The cells were peeled away (3 to 5 minutes) using 0.25% trypsin-EDTA (made by Nacalai Tesque Inc.) (1 mL) at the point in time when 80% confluence was reached, and 5 mL of culture medium was added, after which the components were centrifuged (180×g, 5 minutes, room temperature). A supernatant was removed, and cell pellets were suspended in fresh culture medium and sown in a 96-well black plate at a rate of 10,000 cells/0.1 mL/well. The next day, the culture medium was replaced with the differentiation culture medium, and culturing was carried out for two days to induce differentiation into myotube cells. The culture medium was then replaced with differentiation culture medium (100 μL) to which the substance under test was added, and culturing was carried out for a further two days.
After treatment with the substance under test, the wells were refilled with 100 μL of a fixing solution (4% PFA: paraformaldehyde (made by Nacalai Tesque Inc.)), incubated for 15 minutes at 4° C., and then washed three times using Dulbecco's Phosphate-Buffered Saline (DPBS) (made by Thermo Fisher Scientific Inc.). 100 μL of a blocking/membrane permeation liquid solution (0.3% TritonX/3% BSA/DPBS) was added, and the components were incubated for 30 minutes at room temperature. The aforementioned solution replaced with a primary antibody solution (primary antibody reagent (diluted by a factor of 300)/3% BSA/DPBS) and then incubated overnight at 4° C. The primary antibody solution was removed, and the wells were washed three times using a blocking solution (3% BSA/DPBS) before being refilled with a secondary antibody solution (secondary antibody reagent (diluted by a factor of 500)/0.1% nucleus-staining reagent/3% BSA/DPBS) and incubated for two hours at room temperature. Finally, the wells were washed three times using DPBS and refilled with new DPBS before imaging analysis was carried out.
An automatic cell image system (“Operetta CLS,” made by PerkinElmer Inc.) was used in the imaging analysis of the immunostained cells. Nine fields of view of central sections of the wells were imaged using a 10× objective lens, and then fluorescent regions marked by the anti-MHC antibodies and cell nucleus regions marked by the nucleus-staining reagent were detected using image analysis software (Harmony 4.6) included with the system. […]

[1] = Table 3 data, 0.5 mM, vs comparative example 3-1
[2] = Table 1 data, 0.5 mM, vs comparative example 1-1, Dunnett's test, 5%
[3] = Table 2 data, 0.2 mM, vs comparative example 2-1
[4] = Table 2 data, 0.5 mM, vs comparative example 2-1

CCCCCCCCCCCCCC(=O)O [Tetradecanoic acid (C14:0), Tetradecanoic acid]
Maximum transverse diameter/myotube cell (%) Average value (Table 3, 0.5 mM): 108.6% | Myotube area/field of view (%) Average value (Table 3, 0.5 mM): 114.7% | Maximum transverse diameter/myotube cell (%) Average value (Table 3, 1 mM): 124.4% | Myotube area/field of view (%) Average value (Table 3, 1 mM): 107.3% | area of the myotube cells within the fields of view, change versus control (in words) [1]: significantly increased | per-cell maximum transverse diameter of the myotube cells, change versus control (in words) [1]: significantly increased | per-cell maximum transverse diameter of the myotube cells, change versus control (in words) (Table 3 data, 1.0 mM, vs comparative example 3-1): significantly increased

IGF-1: insulin-like growth factor (IGF-1), a factor for promoting formation of myotube cells; positive control at 10 ng/mL
Maximum transverse diameter/myotube cell (%) Average value (Table 1, 10 ng/mL): 101.8% | Myotube area/field of view (%) Average value (Table 1, 10 ng/mL): 114.1% | Maximum transverse diameter/myotube cell (%) Average value (Table 2, 10 ng/mL): 99.1% | Myotube area/field of view (%) Average value (Table 2, 10 ng/mL): 126.8% | Maximum transverse diameter/myotube cell (%) Average value (Table 3, 10 ng/mL): 100.4% | Myotube area/field of view (%) Average value (Table 3, 10 ng/mL): 120.5% | Maximum transverse diameter/myotube cell (%) Average value (Table 4, 10 ng/mL): 104.8% | Myotube area/field of view (%) Average value (Table 4, 10 ng/mL): 132.8%

CCCCCCCCCCCCCCCCC(=O)O [Heptadecanoic acid (C17:0), Heptadecanoic acid, reference compound]
Maximum transverse diameter/myotube cell (%) Average value (Table 1, 0.5 mM, n=5): 98.4% | Myotube area/field of view (%) Average value (Table 1, 0.5 mM, n=5): 82.8% | area of the myotube cells within the fields of view, change versus control (in words) [2]: significantly decreased

CCCCCCCCCCCCCCC(=O)O [Pentadecanoic acid (C15:0), Pentadecanoic acid]
Maximum transverse diameter/myotube cell (%) Average value (Table 1, 0.5 mM, n=5): 132.2% | Myotube area/field of view (%) Average value (Table 1, 0.5 mM, n=5): 116.0% | area of the myotube cells within the fields of view, change versus control (in words) [2]: significantly increased | per-cell maximum transverse diameter of the myotube cells, change versus control (in words) [2]: significantly increased | Maximum transverse diameter/myotube cell (%) Average value (Table 2, 0.05 mM): 103.0% | Myotube area/field of view (%) Average value (Table 2, 0.05 mM): 108.0% | Maximum transverse diameter/myotube cell (%) Average value (Table 2, 0.2 mM): 109.3% | Myotube area/field of view (%) Average value (Table 2, 0.2 mM): 119.3% | Maximum transverse diameter/myotube cell (%) Average value (Table 2, 0.5 mM): 111.4% | Myotube area/field of view (%) Average value (Table 2, 0.5 mM): 118.7% | per-cell maximum transverse diameter of the myotube cells, change versus control (in words) (Table 2 data, 0.05 mM, vs comparative example 2-1): significantly increased | area of the myotube cells within the fields of view, change versus control (in words) [3]: significantly increased | per-cell maximum transverse diameter of the myotube cells, change versus control (in words) [3]: significantly increased | area of the myotube cells within the fields of view, change versus control (in words) [4]: significantly increased | per-cell maximum transverse diameter of the myotube cells, change versus control (in words) [4]: significantly increased

CCCCCCCCCCCCC(=O)O [Tridecanoic acid (C13:0), Tridecanoic acid]
Maximum transverse diameter/myotube cell (%) Average value (Table 1, 0.5 mM, n=5): 124.1% | Myotube area/field of view (%) Average value (Table 1, 0.5 mM, n=5): 98.1% | per-cell maximum transverse diameter of the myotube cells, change versus control (in words) [2]: significantly increased

CCCCCCCCCCCCCCCC(=O)O [Hexadecanoic acid (C16:0), Hexadecanoic acid, reference compound]
Maximum transverse diameter/myotube cell (%) Average value (Table 4, 0.05 mM): 98.7% | Myotube area/field of view (%) Average value (Table 4, 0.05 mM): 91.4% | Maximum transverse diameter/myotube cell (%) Average value (Table 4, 0.5 mM): 104.9% | Myotube area/field of view (%) Average value (Table 4, 0.5 mM): 80.9% | per-cell maximum transverse diameter of the myotube cells, effect (in words) (Table 4 data, 0.05 mM): no effect | per-cell maximum transverse diameter of the myotube cells, effect (in words) (Table 4 data, 0.5 mM): no effect | area of the myotube cells within the fields of view, change versus control (in words) (Table 4 data, 0.5 mM, vs comparative example 4-1): significantly decreased

CCCCCCCCCCC(=O)O [Undecanoic acid (C11:0), Undecanoic acid, reference compound]
Maximum transverse diameter/myotube cell (%) Average value (Table 1, 0.5 mM, n=5): 103.1% | Myotube area/field of view (%) Average value (Table 1, 0.5 mM, n=5): 103.4% | effect on the myotube cells (in words) (Table 1 data, 0.5 mM): no effect
